In patent US20100168100A1, “QUINOLINE DERIVATIVES AS P13 KINASE INHIBITORS” (SMITHKLINE BEECHAM CORPORATION, priority 2007, published 2010) one finds IC50 data, which are given here for 8 molecules.

Each structure is given as a SMILES string. pIC50: −log10 of the molar value.

T1 sequence (P42336 whole entry): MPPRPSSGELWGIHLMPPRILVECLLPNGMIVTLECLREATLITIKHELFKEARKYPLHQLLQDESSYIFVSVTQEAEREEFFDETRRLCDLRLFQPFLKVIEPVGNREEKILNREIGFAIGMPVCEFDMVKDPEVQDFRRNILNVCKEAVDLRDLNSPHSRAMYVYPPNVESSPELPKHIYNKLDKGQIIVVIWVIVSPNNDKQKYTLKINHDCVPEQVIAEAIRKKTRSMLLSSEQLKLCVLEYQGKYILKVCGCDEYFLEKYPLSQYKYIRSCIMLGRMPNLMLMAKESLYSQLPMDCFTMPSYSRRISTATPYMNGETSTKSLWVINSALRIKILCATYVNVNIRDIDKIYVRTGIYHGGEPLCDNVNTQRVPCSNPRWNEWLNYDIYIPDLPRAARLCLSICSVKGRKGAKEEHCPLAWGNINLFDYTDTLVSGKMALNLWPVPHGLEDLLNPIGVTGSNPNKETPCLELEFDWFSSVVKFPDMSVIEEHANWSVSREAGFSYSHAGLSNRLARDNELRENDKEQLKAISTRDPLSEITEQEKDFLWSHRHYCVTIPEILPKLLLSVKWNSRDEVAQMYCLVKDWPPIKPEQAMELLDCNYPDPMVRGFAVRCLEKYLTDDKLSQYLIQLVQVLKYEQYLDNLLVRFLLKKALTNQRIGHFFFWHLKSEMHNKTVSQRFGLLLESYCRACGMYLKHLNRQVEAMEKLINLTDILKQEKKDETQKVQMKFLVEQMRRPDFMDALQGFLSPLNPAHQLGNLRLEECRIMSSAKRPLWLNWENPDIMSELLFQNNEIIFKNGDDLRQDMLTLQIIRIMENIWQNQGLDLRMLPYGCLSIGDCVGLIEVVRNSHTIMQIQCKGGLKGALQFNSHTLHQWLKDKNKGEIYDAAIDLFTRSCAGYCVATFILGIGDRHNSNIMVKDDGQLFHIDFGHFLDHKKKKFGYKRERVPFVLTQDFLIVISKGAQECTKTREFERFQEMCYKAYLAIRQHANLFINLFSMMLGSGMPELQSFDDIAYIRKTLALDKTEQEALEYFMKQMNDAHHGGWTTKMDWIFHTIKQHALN
T1 sequence (P27986 whole entry partner): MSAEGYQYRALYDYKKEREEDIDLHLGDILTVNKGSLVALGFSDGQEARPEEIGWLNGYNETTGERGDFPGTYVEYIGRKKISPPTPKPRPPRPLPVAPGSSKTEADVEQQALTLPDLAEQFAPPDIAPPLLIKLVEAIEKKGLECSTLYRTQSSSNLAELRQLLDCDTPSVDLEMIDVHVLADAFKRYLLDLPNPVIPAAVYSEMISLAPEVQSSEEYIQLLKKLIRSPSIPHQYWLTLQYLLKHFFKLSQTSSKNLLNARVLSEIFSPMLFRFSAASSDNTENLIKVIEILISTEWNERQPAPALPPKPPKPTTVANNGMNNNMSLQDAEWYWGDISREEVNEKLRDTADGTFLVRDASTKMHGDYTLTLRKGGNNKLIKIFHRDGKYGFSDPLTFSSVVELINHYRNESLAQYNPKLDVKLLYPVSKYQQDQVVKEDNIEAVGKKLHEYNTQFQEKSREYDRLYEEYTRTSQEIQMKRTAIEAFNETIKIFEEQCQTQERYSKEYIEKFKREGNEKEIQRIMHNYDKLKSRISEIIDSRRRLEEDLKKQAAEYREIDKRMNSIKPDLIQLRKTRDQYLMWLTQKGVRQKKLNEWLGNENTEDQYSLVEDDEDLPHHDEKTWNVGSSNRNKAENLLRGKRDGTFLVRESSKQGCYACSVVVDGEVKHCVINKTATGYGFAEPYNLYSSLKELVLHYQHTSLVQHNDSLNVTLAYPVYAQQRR

One assay concerns the target T1, PI3Kα (Homo sapiens, UniProt P42336).
T1 construct: His
Put plainly: PI3K Alpha Leadseeker SPA Assay. Conditions: in at least one experimental run; read-out: IC50 against PI3Kα. Format: biochemical. As for the experimental part: PI3K Alpha Leadseeker SPA Assay
Compounds of the present invention were tested according to the following assays and found as inhibitors of PI3 kinases, particularly PI3Kα. The exemplified compounds were tested and found active against PI3Kα. The IC50's ranged from about 1 nM to 10 μM.
SPA imaging beads are microspheres containing scintillant which emit light in the red region of the visible spectrum. As a result, these beads are ideally suited to use with a CCD imager such as the Viewlux. The Leadseeker beads used in this system are polystyrene beads that have been coupled with polyethyleneimine. When added to the assay mixture, the beads absorb both the substrate (PIP2) and product (PIP3). Adsorbed P^33-PIP3 will cause an increase in signal, measured as ADUs (analog to digital units). This protocol details the use of the PEI-PS Leadseeker beads for assays using His-p110/p85 PI3K alpha.
Solid compounds are typically plated with 0.1 μl of 100% DMSO in all wells (except column 6 and 18) of a 384-well, flat bottom, low volume plate (Greiner 784075). The compounds are serially diluted (3-fold in 100% DMSO) across the plate from column 1 to column 12 and column 13 to column 24 and leave column 6 and 18 containing only DMSO to yield 11 concentrations for each test compound.
The assay buffer contains MOPS (pH 6.5), CHAPS, and DTT. PI3K alpha and PIP2 (L-alpha-D-myo-Phosphatidylinositol 4,5-bisphosphate [PI(4,5)P2]3-O-phospho linked, D(+)-sn-1,2-di-O-octanoylglyceryl, CellSignals #901) are mixed and incubated in the plate with compound for 30 min prior to starting the reaction with the addition of P^33-ATP and MgCl2 (reagents added using Zoom). Enzyme-free wells (column 18) are typically done to determine the low control. PEI-PS Leadseeker beads in PBS/EDTA/CHAPS are added (by Multidrop) to quench the reaction, and the plates are allowed to incubate for at least one hour (typically overnight) before centrifugation. The signal is determined using a Viewlux detector and is then imported into curve fitting software (Activity Base) for construction of concentration response curves. The percent inhibition of activity is calculated relative to high controls (C1, 0.1 μl DMSO in column 6, rows A-P)) and low controls (C2, 5 μl of 40 uM PIP2 in buffer in column 18, rows A-P) using, 100*(1-(U1-C2)/(C1-C2)). The concentration of test compound yielding 50% inhibition is determined using the equation, y=((Vmax*x)/(K+x))+Y2, where “K” is equal to the IC50. The IC50 values are converted to pIC50 values, i.e., −log IC50 in Molar concentration.
Turning to `CC1=Nc2ccc(-c3ccc4nccc(-c5ccncc5)c4c3)cc2S(=O)(=O)N1` [Example 154], the pIC50 was 6.50. On to `c1cc(-c2ccnc3ccc(-c4ccc5[nH]ncc5c4)cc23)ccn1` [Example 156], for which the pIC50 is 7.10. Still for that read-out and setting: as for `c1cc(-c2ccnc3ccc(-c4nc5ncncc5[nH]4)cc23)ccn1` [Example 224], the figure is 6.00; as for `O=S(=O)(Nc1cc(-c2ccc3nccc(-c4ccncc4)c3c2)c[n+]([O-])c1Cl)c1ccccc1` [Example 249], 8.80; as for `Cc1ccccc1S(=O)(=O)Nc1cc(-c2ccc3nccc(-c4ccncc4)c3c2)cnc1Cl` [Example 252], 9.10.

As to `NC(=O)Cn1cc(-c2ccnc3ccc(-c4cncc(S(=O)(=O)Nc5ccc(F)cc5F)c4)cc23)cn1` [Example 263], the pIC50 is 8.10. `COc1ncc(-c2ccc3nccc(C4CCCC4)c3c2)cc1NS(=O)(=O)c1ccccc1` [Example 289]: the pIC50 is 8.60.

In the next assay the target is CK2 protein kinase (Homo sapiens, UniProt P68400).
Sequence of CK2 protein kinase (P68400 whole entry): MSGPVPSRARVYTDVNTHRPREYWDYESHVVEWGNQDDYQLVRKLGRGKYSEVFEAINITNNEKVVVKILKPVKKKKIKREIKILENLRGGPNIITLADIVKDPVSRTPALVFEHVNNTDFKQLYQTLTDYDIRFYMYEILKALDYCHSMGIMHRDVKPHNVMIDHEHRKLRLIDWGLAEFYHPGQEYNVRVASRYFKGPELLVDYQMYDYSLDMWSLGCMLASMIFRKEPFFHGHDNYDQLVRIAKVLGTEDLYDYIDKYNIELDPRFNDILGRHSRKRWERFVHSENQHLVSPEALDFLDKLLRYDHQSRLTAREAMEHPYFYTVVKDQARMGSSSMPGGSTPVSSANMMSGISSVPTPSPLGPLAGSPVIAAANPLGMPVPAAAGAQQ
Experiment: not given
Conditions: cited from earlier work.
Take `O=c1cc(N2CCOCC2)oc2c(-c3ccccc3)cccc12` [LY294002]: the pIC50 was 5.00 to 5.30.
